Source: US20090010993A1, “Composition comprising polyphenol” (Conopco, Inc. d/b/a Unilever, priority 2007, published 2009)

System: 2nd order mesenteric resistance arteries of SHR
Experiment: Reactivity of isolated arteries: dilator effect during contraction induced by 40 mmol/L K+
Set-up: species or system Spontaneously Hypertensive Rats (SHR)
Method: Segments of 2nd order mesenteric artery side branches were isolated from 14 weeks old male Spontaneously Hypertensive Rats (SHR). Two stainless-steel wires (diameter 40 μm) were inserted in the lumen of the arterial segments, which were then mounted in organ chambers between an isometric force transducer and a displacement device (Danish Myotechnology by J. P. Trading, Denmark). The organ chambers were filled with Krebs-Ringer bicarbonate solution which was maintained at 37° C. and continuously aerated with 95% O2 and 5% CO2. Before the actual experiments started, arterial segments were stretched to their individual optimal lumen diameter for mechanical performance, i.e. the diameter at which maximal contractile responses to noradrenaline (10 μmol/L) were obtained. In each experiment four second order mesenteric resistance arterial segments from one animal were mounted in individual organ chambers and studied in parallel. At the start of the experiments, all four arterial preparations were incubated during 20 min with capsaicin (1 μmol/L) to persistently desensitize sensory-motor nerves and to obtain a stable and considerable contractile response to potassium (K^+, 40 mmol/L). During all the experiments superoxide dismutase (SOD, 5 U/ml) was present, to preserve stability of the metabolites. We tested the effects of the 35 different phenolic compounds using a Plackett-Burman screening design. The experiment consisted of 5 separate saturated 8 run Plackett-burman designs. […] In this way, the effects of different exposure times to the mixtures (7, 30 and 90 min) on K+-induced contraction, could be evaluated. […] Effects of increasing concentrations of the solvent and of the mixes (0.1 to 100 umol/L) during contractile responses to 40 mmol/L K+, were calculated as % change of the level of pre-contraction. […] Responses to acetylcholine and Na-nitroprusside were analysed in terms of sensitivity (pD2=−log (M) EC50) and maximal effect (Emax) by least square sigmoidal curve fitting of individual concentration-response curves (Graphpad Prism 1.00, San Diego, Calif., USA). […]

## O=c1c(O)c(-c2ccc(O)cc2)oc2cc(O)cc(O)c12 [kaempferol, 3,5,7-trihydroxy-2-(4-hydroxyphenyl)-4H-1-benzopyran-4-one]
Rattus norvegicus, isolated mesenteric resistance arteries of SHR, pre-contracted with 40 mmol/L K+, deduced by comparing mixtures (Plackett-Burman design), corrected for solvent, read-out: EC50 of dilation of the arteries
  EC50: 3000 nM
At a low concentration, isolated SHR mesenteric arteries, comparison of different mixtures
  influence on the dilation of the arteries: significant influence on the dilation of the arteries
Isolated mesenteric resistance arteries of SHR, pre-contracted with 40 mmol/L K+, range tested 0.1-100 umol/L
  concentration at which the maximum dilatation was obtained: 100 µM
